Assay results from patent publication US20080153791A1, “11Beta -Hydroxysteroid Dehydrogenases” (onpharm GmbH, priority 2005, published 2008).
Read-outs that look alike come from different tables or passages of the source.

Legend:
human 11β-HSD1 = molecular target: T1, human 11β-HSD1 (Homo sapiens, UniProt P28845); test: 11β-HSD1 reductase activity (cortisone to cortisol) in lysates of stably transfected HEK-293 cells; assay type: biochemical; conditions: for remaining activity at 20 µM: 20 μM compound, 100 nM cortisone, HEK-293 cell lysates, read-out: 11β-HSD1 % of control; for IC50: cell lysates
T1 construct: expressed in transfected cells
Experimental: (§1) Cells were grown in 10 cm dishes to 80% confluence and incubated for 16 h in steroid-free medium (charcoal-treated fetal calf serum (FCS) from HyClone, Logan, Utah). Cells were rinsed once with phosphate-buffered saline (PBS), detached and centrifuged for 3 min at 150×g. The supernatant was removed and the cell pellet quick-frozen in a dry-ice ethanol bath. At the day of experiment, cell pellets were resuspended in buffer TS2 (100 mM NaCl, 1 mM EGTA, 1 mM EDTA, 1 mM MgCl2, 250 mM sucrose, 20 mM Tris-HCl, pH 7.4), sonicated and activities determined immediately. The rate of conversion of cortisol to cortisone or the reverse reaction was determined in 96-well optical PCR reaction plates (Applied Biosystems, Foster City, Calif.) in a final volume of 22 μl, and the tubes were capped during the reaction to avoid evaporation.
Reactions were initiated simultaneously by adding 10 μl of cell lysate and 12 μl of TS2 buffer containing the appropriate concentration of the inhibitory compound to be tested, NADPH, 30 nCi of [1,2,6,7-^3H]-cortisone and unlabeled cortisone, whereby final concentrations were 400 μM NADPH and 100 nM cortisone. Activities were determined immediately after cell disruption by measuring the conversion of radiolabeled cortisone to cortisol for 10 min.
(§2) Enzyme kinetics were analyzed by non-linear regression using Data Analysis Toolbox (MDL Information Systems Inc.) assuming first-order rate kinetics. Data represent mean ±SD of four to five independent experiments.
(§3) Assay with 20 μM of the corresponding compound in the reaction mixture, added simultaneously with the substrate:
(§4) Determination of IC50 values, using 7 different inhibitor concentrations at factor 2 intervals: […]

human 11β-HSD2 = molecular target: T2, human 11β-HSD2 (Homo sapiens, UniProt P80365); test: 11β-HSD2 oxidase activity (cortisol to cortisone) in lysates of stably transfected HEK-293 cells; assay type: biochemical; conditions: for remaining activity at 20 µM: read-out: 11β-HSD2 % of control
T2 construct: expressed in transfected cells
T2 sequence (P80365 1-405): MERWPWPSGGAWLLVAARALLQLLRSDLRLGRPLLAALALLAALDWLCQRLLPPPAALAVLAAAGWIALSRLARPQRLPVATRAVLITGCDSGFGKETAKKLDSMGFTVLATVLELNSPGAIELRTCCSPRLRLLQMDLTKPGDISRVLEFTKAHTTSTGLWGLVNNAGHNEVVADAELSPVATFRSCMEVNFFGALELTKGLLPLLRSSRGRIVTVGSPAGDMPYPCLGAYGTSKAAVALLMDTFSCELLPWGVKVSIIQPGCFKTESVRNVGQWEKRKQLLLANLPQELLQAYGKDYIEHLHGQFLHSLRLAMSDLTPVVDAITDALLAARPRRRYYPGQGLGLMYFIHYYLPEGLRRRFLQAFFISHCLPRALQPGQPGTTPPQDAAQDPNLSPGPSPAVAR
Experimental: as §1
Reactions were initiated by simultaneously adding 10 μl of cell lysate and 12 μl of TS2 buffer containing the appropriate concentration of the inhibitory compound to be tested, NAD^+, 30 nCi of [1,2,6,7-^3H]-cortisol and unlabeled cortisol. […] Stock solutions of the inhibitors in methanol or DMSO were diluted in TS2 buffer to yield the appropriate concentrations, whereby the concentration of methanol or DMSO in the reactions were kept below 0.1%. Control reactions with or without 0.1% of the solvent were performed. Incubation was at 37° C. for 10 min with shaking, reactions were terminated by adding 10 μl of stop solution containing 2 mM of unlabeled cortisol and cortisone dissolved in methanol. The conversion of radiolabeled cortisol was determined by separation of cortisol and cortisone using TLC and a solvent system of 9:1 (v/v) chloroform:methanol, followed by scintillation counting.
as §2, §3, §4

[1] = 20 μM compound, 25 nM cortisol, HEK-293 cell lysates
[2] = cell lysates, 7 inhibitor concentrations at factor 2 intervals, experiment 2, read-out: IC 50 11β-HSD2, determination 2
[3] = cell lysates, 7 inhibitor concentrations at factor 2 intervals, experiment 3, read-out: IC 50 11β-HSD2, determination 3

T1 sequence (P28845 whole entry): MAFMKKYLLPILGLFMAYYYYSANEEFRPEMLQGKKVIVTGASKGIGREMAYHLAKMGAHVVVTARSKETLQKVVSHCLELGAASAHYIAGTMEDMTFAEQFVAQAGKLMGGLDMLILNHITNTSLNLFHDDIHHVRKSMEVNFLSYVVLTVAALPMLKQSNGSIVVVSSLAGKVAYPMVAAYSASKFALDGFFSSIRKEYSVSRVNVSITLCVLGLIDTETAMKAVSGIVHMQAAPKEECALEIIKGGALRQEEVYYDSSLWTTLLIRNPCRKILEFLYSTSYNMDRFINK

Structure (SMILES) | remaining activity at 20 µM (human 11β-HSD1) | remaining activity at 20 µM (human 11β-HSD2; [1]) | further results
CSc1nc2cc(C)c(C)cc2n1C1OC(CO)C(O)C1O (centres unmarked) [BNW18] | 92% | 82.8% | 
COCCN1C(=O)C(O)=C(C(=O)c2ccc(OC)c(C)c2)C1c1ccc(C)cc1 (centres unmarked) [BNW20] | 46.8% | 121% | 
COc1ccc(C(=O)NCc2cccc(Cl)c2Cl)c(C(F)(F)F)c1 [BNW6] | 79.6% | 145% | 
COc1ccc(OC)c(C2C(C(=O)c3ccc(Br)cc3)=C(O)C(=O)N2CCCn2ccnc2)c1 (centres unmarked) [BNW2] | 78.8% | 78% | 
COc1ccc(CNC(=O)C2CCC(=O)N2C2CCCC2)cc1OC (centres unmarked) [BNW26] | 94.1% | 137% | 
CC1(C)[C@@H](OCO)CC[C@]2(C)[C@H]3C(=O)C=C4C5=C[C@@](C)(C(=O)O)CC[C@]5(C)CC[C@@]4(C)[C@]3(C)CC[C@@H]12 [BNW15] | 50.4% | 56.9% | 
COc1cccc(/C=N/NC(=O)CSCc2ccccc2C)c1OC [BNW23] | 85.1% | 133% | 
NC(=O)c1c(NC(=O)C2CC=CCC2C(=O)O)sc2c1CCCCC2 (centres unmarked) [BNW8] | 41.7% | 103% | 
CC1(C)[C@@H](N)CC[C@]2(C)[C@H]3C(=O)C=C4[C@@H]5C[C@@](C)(C(=O)O)CC[C@]5(C)CC[C@@]4(C)[C@]3(C)CC[C@@H]12 [BNW25, (2S,4aS,6aS,6bR,8aR,10S,12aS,12bR,14bR)-10-Amino-2,4a,6a,6b,9,9,12a-heptamethyl-13-oxo-1,2,3,4,4a,5,6,6a,6b,7,8,8a,9,10,11,12,12a,12b,13,14b-icosahydro-picene−2-carboxyiic acid] | 2.9% |  | IC50 (human 11β-HSD1; mean of determinations 1-3, read-out: IC 50 11β-HSD1, Mean): 172 nM; IC50 (human 11β-HSD2; [2]): 54.6 nM; IC50 (human 11β-HSD2; [3]): 64.9 nM; remaining activity at 20 µM (human 11β-HSD2): 13.9%; IC50 (human 11β-HSD2; read-out: IC 50 11β-HSD2, Mean): 59.7 nM
COC(=O)[C@@]1(C)CC[C@]2(C)CC[C@]3(C)C(=CC(=O)[C@@H]4[C@@]5(C)CC[C@H](Oc6ccccc6C(=O)O)C(C)(C)[C@@H]5CC[C@]43C)[C@@H]2C1 [BNW13, (2S,4aS,6aS,6bR,8aR,10S,12aS,12bR,14bR)-10-(2-Carboxy-phenoxy)-2,4a,6a,6b,9,9,12a-heptamethyl-13-oxo-1,2,3,4,4a,5,6,6a,6b,7,8,8a,9,10,11,12,12a,12b,13,14b-icosahydro-picene-2-carboxylic acid methyl ester] | 3.9% | 14.4% | IC50 (human 11β-HSD1; 7 inhibitor concentrations at factor 2 intervals, experiment 1, read-out: IC 50 11β-HSD1, determination 1): 666 nM; IC50 (human 11β-HSD1; 7 inhibitor concentrations at factor 2 intervals, experiment 2, read-out: IC 50 11β-HSD1, determination 2): 756 nM; IC50 (human 11β-HSD1; 7 inhibitor concentrations at factor 2 intervals, experiment 3, read-out: IC 50 11β-HSD1, determination 3): 652 nM; IC50 (human 11β-HSD2; [2]): 263 nM; IC50 (human 11β-HSD2; [3]): 299 nM
COc1ccc(C(=O)C2=C(O)C(=O)N(CCCn3ccnc3)C2c2ccccc2)cc1Cl (centres unmarked) [BNW21] | 48.9% | 122% | 
CCOc1ccc(C2c3cc(OCC)c(OCC)cc3CC(=O)N2c2ccc(C(=O)O)cc2)cc1OCC (centres unmarked) [BNW17] | 88.2% | 120% | 
COc1cc(/C=N/NC(=O)CSc2nc3ccccc3n2Cc2ccc(C)cc2)cc(OC)c1OC(C)=O [BNW28] | 76.7% | 137% | 
COc1cc2c(cc1OC)C(COc1ccc([N+](=O)[O-])cc1)N(C(=O)c1ccc(Cl)c([N+](=O)[O-])c1)CC2 (centres unmarked) [BNW27] | 78.6% | 126% | 
CCN(CC(O)COc1cc(C)c(Cl)c(C)c1)S(=O)(=O)O (centres unmarked) [BNW1] | 102% | 96.8% | 
COCCC1C(=O)C(O)=C(C(=O)c2ccc(OC)c(C)c2)C1c1ccc(Cl)cc1Cl (centres unmarked) [BNW9] | 30.7% | 77.4% | 
CCN(CC)S(=O)(=O)c1ccc(OC)c(-c2nnc(-c3cc(S(=O)(=O)N(CC)CC)ccc3OC)o2)c1 [BNW29] | 75.3% | 115% | 
Cc1nn(CC(=O)Nc2sc(C)c(C)c2C(N)=O)c(C)c1[N+](=O)[O-] [BNW4] | 82.2% | 95% | 
CCOc1ccc(C2C(C(=O)c3ccc(Cl)cc3)=C(O)C(=O)N2CCCn2ccnc2)cc1OCC (centres unmarked) [BNW22] | 41.3% | 104% | 
